Test results from PubChem BioAssay AID256 (DTP/NCI, 2004).
Inconclusive results and toxic doses are left out. The calls were made as follows: active = survival T/C of 150% or more; inactive = T/C below 125% in these data.

Tested on: CD2F1 mice, L1210 leukemia ip, survival T/C
Assay: NCI In Vivo Anticancer Drug Screen. Data for tumor model L1210 Leukemia (intraperitoneal) in CD2F1 (CDF1) mice
Conditions: higher = longer survival
Summary of the method: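 Each value reflects a quotient of treated over vehicle control outcomes in mice with a transplanted tumor.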

[1] = endpoint: mean survival time, dose: 100.0 mg/kg/injection, schedule: Q04DX002 (ip), vehicle: saline with Tween-80
[2] = endpoint: mean survival time, dose: 200.0 mg/kg/injection, schedule: Q04DX002 (ip), vehicle: saline with Tween-80
[3] = endpoint: median survival time, dose: 12.5 mg/kg/injection, schedule: Q01DX005 (ip), vehicle: saline with Tween-80
[4] = endpoint: median survival time, dose: 25.0 mg/kg/injection, schedule: Q01DX005 (ip), vehicle: saline with Tween-80
[5] = endpoint: median survival time, dose: 50.0 mg/kg/injection, schedule: Q01DX005 (ip), vehicle: saline with Tween-80
[6] = endpoint: median survival time, dose: 100.0 mg/kg/injection, schedule: Q01DX005 (ip), vehicle: saline with Tween-80
[7] = endpoint: median survival time, dose: 200.0 mg/kg/injection, schedule: Q01DX005 (ip), vehicle: saline with Tween-80

Measured: T/C

CC1(Br)OC(=O)CC1Br (stereo unspecified)
inactive: [1] 106 % of control | [2] 91 % of control

CC1CCC2(OC1)OC1CC3C4CCC5(C)CC(=O)CCC5(C)C4CCC3(C)C1C2C (stereo unspecified)
inactive: [1] 90 % of control | [2] 86 % of control

CC(=O)Oc1cccc2c1C(=O)c1c(OC(C)=O)cc(C)cc1C2=O
inactive: endpoint: mean survival time, dose: 100.0 mg/kg/injection, schedule: Q01DX001 (ip), vehicle: saline 101 % of control | endpoint: mean survival time, dose: 200.0 mg/kg/injection, schedule: Q01DX001 (ip), vehicle: saline 101 % of control | endpoint: mean survival time, dose: 400.0 mg/kg/injection, schedule: Q01DX001 (ip), vehicle: saline 98 % of control

O=c1[nH]n(Cc2ccccc2)c2ccccc12
inactive: endpoint: mean survival time, dose: 25.0 mg/kg/injection, schedule: Q04DX003 (ip), vehicle: Klucel (hydroxypropylcellulose) (HPC) 101 % of control | endpoint: mean survival time, dose: 50.0 mg/kg/injection, schedule: Q04DX003 (ip), vehicle: Klucel (hydroxypropylcellulose) (HPC) 106 % of control | endpoint: mean survival time, dose: 100.0 mg/kg/injection, schedule: Q04DX003 (ip), vehicle: Klucel (hydroxypropylcellulose) (HPC) 106 % of control

O=c1[nH]c(=O)n(C2OC3COC2C3O)cc1F (stereo unspecified)
inactive: [3] 101 % of control | [4] 106 % of control | [5] 102 % of control | [6] 97 % of control | [7] 96 % of control

CSc1nc(NC2OC(CO)C(O)C(O)C2O)c(Br)c(=O)[nH]1 (stereo unspecified)
inactive: [3] 101 % of control | [4] 101 % of control | [5] 100 % of control | [6] 101 % of control | [7] 100 % of control

CC(=O)Nc1c(C#N)ncn1C1OC(CO)C(O)C1O (stereo unspecified)
inactive: endpoint: median survival time, dose: 12.5 mg/kg/injection, schedule: Q01DX005 (ip), vehicle: saline 104 % of control | endpoint: median survival time, dose: 25.0 mg/kg/injection, schedule: Q01DX005 (ip), vehicle: saline 103 % of control | endpoint: median survival time, dose: 50.0 mg/kg/injection, schedule: Q01DX005 (ip), vehicle: saline 92 % of control | endpoint: median survival time, dose: 100.0 mg/kg/injection, schedule: Q01DX005 (ip), vehicle: saline 101 % of control | endpoint: median survival time, dose: 200.0 mg/kg/injection, schedule: Q01DX005 (ip), vehicle: saline 100 % of control

C=CCn1c(NCCN(CC)CC)nc2ccc(Cl)cc2c1=O
inactive: endpoint: mean survival time, dose: 12.5 mg/kg/injection, schedule: Q01DX009 (ip), vehicle: saline sonified 105 % of control | endpoint: mean survival time, dose: 12.5 mg/kg/injection, schedule: Q04DX003 (ip), vehicle: saline 100 % of control | endpoint: mean survival time, dose: 25.0 mg/kg/injection, schedule: Q01DX009 (ip), vehicle: saline sonified 100 % of control | endpoint: mean survival time, dose: 25.0 mg/kg/injection, schedule: Q04DX003 (ip), vehicle: saline 100 % of control | endpoint: mean survival time, dose: 50.0 mg/kg/injection, schedule: Q01DX009 (ip), vehicle: saline sonified 103 % of control | endpoint: mean survival time, dose: 50.0 mg/kg/injection, schedule: Q04DX003 (ip), vehicle: saline 101 % of control

Nc1ccc(CCc2nc(N)[nH]c(=O)c2-c2ccc(Cl)cc2)cc1
inactive: endpoint: mean survival time, dose: 37.5 mg/kg/injection, schedule: Q01DX001 (ip), vehicle: saline with Tween-80 100 % of control | endpoint: mean survival time, dose: 75.0 mg/kg/injection, schedule: Q01DX001 (ip), vehicle: saline with Tween-80 91 % of control | endpoint: mean survival time, dose: 150.0 mg/kg/injection, schedule: Q01DX001 (ip), vehicle: saline with Tween-80 94 % of control

Cc1cccc(Cl)c1NC(=O)Nc1cc(Cl)ccc1Oc1c(Cl)cc(Cl)cc1S(=O)(=O)O
inactive: endpoint: mean survival time, dose: 100.0 mg/kg/injection, schedule: Q01DX009 (ip), vehicle: saline with Tween-80 90 % of control | endpoint: mean survival time, dose: 200.0 mg/kg/injection, schedule: Q01DX009 (ip), vehicle: saline with Tween-80 90 % of control

Nc1nc(=O)n2ccn(C3OC(CO)C(O)C3O)c2n1 (stereo unspecified)
inactive: endpoint: mean survival time, dose: 12.5 mg/kg/injection, schedule: Q01DX005 (ip), vehicle: distilled water + Tween-80 103 % of control | endpoint: mean survival time, dose: 25.0 mg/kg/injection, schedule: Q01DX005 (ip), vehicle: distilled water + Tween-80 100 % of control | endpoint: mean survival time, dose: 50.0 mg/kg/injection, schedule: Q01DX005 (ip), vehicle: distilled water + Tween-80 100 % of control | endpoint: mean survival time, dose: 100.0 mg/kg/injection, schedule: Q01DX005 (ip), vehicle: distilled water + Tween-80 100 % of control | endpoint: mean survival time, dose: 200.0 mg/kg/injection, schedule: Q01DX005 (ip), vehicle: distilled water + Tween-80 103 % of control
